Test results from BindingDB's records for doi:10.1021/acs.jmedchem.0c00689 (Virginia Commonwealth University, 2020).
Where a SMILES comes first, the peptide text is derived from it. The star is where a group is joined. X1 = O=C(Cc1ccc(O)cc1)*

Legend:
[1] = Inhibition of recombinant human full-length His6-tagged NTMT1 (1 to 222 residues) expressed in Escherichia coli BL21-CodonPlus(DE3)-RIL competent cells assessed as Me3RCC1 level at 50 uM pre-incubated for 10 mins before RCC1 substrate addition and measured after 15 mins by Western blot analysis relative to control
[2] = Inhibition of recombinant human full-length His6-tagged NTMT1 (1 to 222 residues) expressed in Escherichia coli BL21-CodonPlus(DE3)-RIL competent cells assessed as Me2RCC1 level at 10 uM pre-incubated for 0 mins before RCC1 substrate addition and measured after 15 mins by Western blot analysis relative to control
[3] = Inhibition of recombinant human full-length His6-tagged NTMT1 (1 to 222 residues) expressed in Escherichia coli BL21-CodonPlus(DE3)-RIL competent cells assessed as Me2RCC1 level at 2 uM pre-incubated for 10 mins before RCC1 substrate addition and measured after 15 mins by Western blot analysis relative to control
[4] = Inhibition of recombinant human full-length His6-tagged NTMT1 (1 to 222 residues) expressed in Escherichia coli BL21-CodonPlus(DE3)-RIL competent cells assessed as Me3RCC1 level at 2 uM pre-incubated for 10 mins before RCC1 substrate addition and measured after 15 mins by Western blot analysis relative to control
[5] = Inhibition of recombinant human full-length His6-tagged NTMT1 (1 to 222 residues) expressed in Escherichia coli BL21-CodonPlus(DE3)-RIL competent cells assessed as Me2RCC1 level at 10 uM pre-incubated for 10 mins before RCC1 substrate addition and measured after 15 mins by Western blot analysis relative to control

Row | Compound | IC50 [1] | IC50 [2] | IC50 [3] | IC50 [4] | IC50 [5]
1 | N=C(N)NCCC[C@H](NC(=O)[C@H](CCCCN)NC(=O)[C@@H]1CCCN1C(=O)Cc1ccc(O)cc1)C(N)=O | 100 nM | 1000 nM | 100 nM | – | –
2 | N=C(N)NCCC[C@H](NC(=O)[C@H](CCCNC(=N)N)NC(=O)[C@H](CCCNC(=N)N)NC(=O)[C@H](CCC(N)=O)NC(=O)[C@H](CCCNC(=N)N)NC(=O)[C@H](CCCNC(=N)N)NC(=O)[C@H](CCCCN)NC(=O)[C@H](CCCCN)NC(=O)[C@H](CCCNC(=N)N)NC(=O)CNC(=O)[C@H](CCCNC(=N)N)NC(=O)[C@H](CCCCN)NC(=O)[C@@H]1CCCN1C(=O)Cc1ccc(O)cc1)C(N)=O | 200 nM | 700 nM | – | 1000 nM | 1000 nM
3 | N=C(N)NCCC[C@H](NC(=O)[C@H](CCCNC(=N)N)NC(=O)[C@H](CCCNC(=N)N)NC(=O)[C@H](CCCNC(=N)N)NC(=O)[C@H](CCCNC(=N)N)NC(=O)[C@H](CCCNC(=N)N)NC(=O)[C@H](CCCCN)NC(=O)[C@@H]1CCCN1C(=O)Cc1ccc(O)cc1)C(N)=O (X1-PKRRRRRR-NH2) | 100 nM | 900 nM | 100 nM | 800 nM | 1000 nM
